Reference: article PMC5218480 (PLoS ONE, 2017)

Test system: MV-4-11 cells
Experiment: Gene expression microarray analysis (Affymetrix PrimeView) and GSEA
Type: cell-based, human
Design: RFU PODN (11730768_x_at) / Fold change /veh PODN (11730768_x_at) / RFU LINC00158 (11744669_a_at) / Fold change /veh LINC00158 (11744669_a_at) / RFU DUSP10 (11751237_a_at) / Fold change /veh DUSP10 (11751237_a_at) / RFU ID3 (11757404_x_at) / Fold change /veh ID3 (11757404_x_at) / RFU PLEKHG5 (11737974_s_at) / Fold change /veh PLEKHG5 (11737974_s_at) / RFU LRRC4B (11730491_at) / Fold change /veh LRRC4B (11730491_at) / RFU GIMAP4 (11747438_a_at) / Fold change /veh GIMAP4 (11747438_a_at) / RFU KRT8 (11758183_x_at) / Fold change /veh KRT8 (11758183_x_at) / RFU CNN1 (11734310_a_at) / Fold change /veh CNN1 (11734310_a_at) / RFU VPS37D (11726825_at) / Fold change /veh VPS37D (11726825_at) / RFU C10orf10 (11716522_x_at) / Fold change /veh C10orf10 (11716522_x_at) / RFU KIR2DL2 /// KIR2DL4 /// KIR2DL5A /// KIR2DL5B /// KIR2DS1 /// KIR2DS2 /// KIR2DS3 /// KIR2DS4 /// KIR3DL3 /// KIR3DL3 /// KIR3DS1 (11738374_at) / Fold change /veh KIR2DL2 /// KIR2DL4 /// KIR2DL5A /// KIR2DL5B /// KIR2DS1 /// KIR2DS2 /// KIR2DS3 /// KIR2DS4 /// KIR3DL3 /// KIR3DL3 /// KIR3DS1 (11738374_at) / RFU C1QL1 (11718748_at) / Fold change /veh C1QL1 (11718748_at) / RFU TMPRSS4 (11747572_a_at) / Fold change /veh TMPRSS4 (11747572_a_at) / RFU HAMP (11756126_x_at) / Fold change /veh HAMP (11756126_x_at) / RFU RNFT2 (11725882_a_at) / Fold change /veh RNFT2 (11725882_a_at) / RFU NR4A2 (11747474_a_at) / Fold change /veh NR4A2 (11747474_a_at) / RFU ABCC12 (11746883_a_at) / Fold change /veh ABCC12 (11746883_a_at) / RFU TMEM136 (11760407_x_at) / Fold change /veh TMEM136 (11760407_x_at) / RFU CLDN22 /// WWC2 (11732394_at) / Fold change /veh CLDN22 /// WWC2 (11732394_at) / RFU HLA-DPB1 (11760878_x_at) / Fold change /veh HLA-DPB1 (11760878_x_at) / RFU SPINT1 (11716480_a_at) / Fold change /veh SPINT1 (11716480_a_at) / RFU GAP43 (11754022_s_at) / Fold change /veh GAP43 (11754022_s_at) / RFU A4GNT (11735810_at) / Fold change /veh A4GNT (11735810_at) / RFU PRB3 (11715151_x_at) / Fold change /veh PRB3 (11715151_x_at) / RFU TUBB4B (11761932_at) / Fold change /veh TUBB4B (11761932_at) / RFU CAPN14 (11732068_a_at) / Fold change /veh CAPN14 (11732068_a_at) / RFU TMCC2 (11721928_a_at) / Fold change /veh TMCC2 (11721928_a_at) / RFU IRGQ (11745062_a_at) / Fold change /veh IRGQ (11745062_a_at) / RFU FAM174B (11720279_a_at) / Fold change /veh FAM174B (11720279_a_at) / RFU TMPRSS4 (11748680_a_at) / Fold change /veh TMPRSS4 (11748680_a_at) / RFU FAM212B (11763350_a_at) / Fold change /veh FAM212B (11763350_a_at) / RFU PLEKHG5 (11743358_a_at) / Fold change /veh PLEKHG5 (11743358_a_at) / RFU ZSCAN30 (11745921_a_at) / Fold change /veh ZSCAN30 (11745921_a_at) / RFU CMKLR1 (11741424_a_at) / Fold change /veh CMKLR1 (11741424_a_at) / RFU LOC101060620 /// MAPK8IP1 (11723275_at) / Fold change /veh LOC101060620 /// MAPK8IP1 (11723275_at) / RFU SPTSSB (11747773_x_at) / Fold change /veh SPTSSB (11747773_x_at) / RFU PRSS12 (11739890_at) / Fold change /veh PRSS12 (11739890_at) / RFU BIN1 (11741810_x_at) / Fold change /veh BIN1 (11741810_x_at) / RFU WNT11 (11732464_a_at) / Fold change /veh WNT11 (11732464_a_at) / RFU C10orf10 (11716521_a_at) / Fold change /veh C10orf10 (11716521_a_at) / RFU C5orf56 (11738089_at) / Fold change /veh C5orf56 (11738089_at) / RFU CYB561 (11721691_x_at) / Fold change /veh CYB561 (11721691_x_at) / RFU ANKRD19P (11752326_a_at) / Fold change /veh ANKRD19P (11752326_a_at) / RFU OR2T12 /// OR2T33 /// OR2T8 (11738714_s_at) / Fold change /veh OR2T12 /// OR2T33 /// OR2T8 (11738714_s_at) / RFU VCAN (11748164_a_at) / Fold change /veh VCAN (11748164_a_at) / RFU JSRP1 (11732532_at) / Fold change /veh JSRP1 (11732532_at) / RFU KRTAP10-11 (11738290_x_at) / Fold change /veh KRTAP10-11 (11738290_x_at) / RFU MYO3A (11730013_a_at) / Fold change /veh MYO3A (11730013_a_at) / RFU EBF3 (11725865_a_at) / Fold change /veh EBF3 (11725865_a_at) / RFU CAMK2N1 (11719241_x_at) / Fold change /veh CAMK2N1 (11719241_x_at) / RFU C5orf56 (11738088_a_at) / Fold change /veh C5orf56 (11738088_a_at) / RFU OLFML3 (11715873_a_at) / Fold change /veh OLFML3 (11715873_a_at) / RFU LOC100653217 /// NTM (11731650_a_at) / Fold change /veh LOC100653217 /// NTM (11731650_a_at) / RFU MAPK11 (11762145_a_at) / Fold change /veh MAPK11 (11762145_a_at) / RFU FIZ1 (11724087_x_at) / Fold change /veh FIZ1 (11724087_x_at) / RFU OASL (11726364_x_at) / Fold change /veh OASL (11726364_x_at) / RFU SOX15 (11748057_x_at) / Fold change /veh SOX15 (11748057_x_at) / RFU CD79A (11719716_a_at) / Fold change /veh CD79A (11719716_a_at) / RFU HIST1H1D (11736915_at) / Fold change /veh HIST1H1D (11736915_at) / RFU CASKIN2 (11723855_a_at) / Fold change /veh CASKIN2 (11723855_a_at) / RFU LOC730098 (11760151_x_at) / Fold change /veh LOC730098 (11760151_x_at) / RFU OR4N2 (11742367_at) / Fold change /veh OR4N2 (11742367_at) / RFU PRRT2 (11749266_a_at) / Fold change /veh PRRT2 (11749266_a_at) / RFU SNX32 (11753110_a_at) / Fold change /veh SNX32 (11753110_a_at) / RFU CDHR5 (11726645_a_at) / Fold change /veh CDHR5 (11726645_a_at) / RFU RCAN1 (11760418_a_at) / Fold change /veh RCAN1 (11760418_a_at) / RFU FAM167A (11723789_a_at) / Fold change /veh FAM167A (11723789_a_at) / RFU FAM26E (11764081_at) / Fold change /veh FAM26E (11764081_at) / RFU ISYNA1 (11749810_s_at) / Fold change /veh ISYNA1 (11749810_s_at) / RFU ACY1 (11761880_at) / Fold change /veh ACY1 (11761880_at) / RFU 11764098_at / Fold change /veh 11764098_at / RFU SAMD14 (11745864_x_at) / Fold change /veh SAMD14 (11745864_x_at) / RFU NPB (11741838_a_at) / Fold change /veh NPB (11741838_a_at) / RFU TMPRSS6 (11731388_a_at) / Fold change /veh TMPRSS6 (11731388_a_at) / RFU KRTAP10-2 (11738614_at) / Fold change /veh KRTAP10-2 (11738614_at) / RFU ARHGAP8 /// PRR5-ARHGAP8 (11727945_x_at) / Fold change /veh ARHGAP8 /// PRR5-ARHGAP8 (11727945_x_at) / RFU KRTAP5-7 /// NADSYN1 (11734609_at) / Fold change /veh KRTAP5-7 /// NADSYN1 (11734609_at) / RFU RASL12 (11751679_a_at) / Fold change /veh RASL12 (11751679_a_at) / RFU CDKN2B (11736163_a_at) / Fold change /veh CDKN2B (11736163_a_at) / RFU PRF1 (11729649_at) / Fold change /veh PRF1 (11729649_at) / RFU, ZNF638 /// ZNF638-IT1 / Fold change vs veh, ZNF638 /// ZNF638-IT1 / RFU, PANK3 / Fold change vs veh, PANK3 / RFU, SH3YL1 / Fold change vs veh, SH3YL1 / RFU, ZEB2 / Fold change vs veh, ZEB2 / RFU, NRIP1 / Fold change vs veh, NRIP1 / RFU, PTTG1IP / Fold change vs veh, PTTG1IP / RFU, CAPN2 / Fold change vs veh, CAPN2 / RFU, MED14 / Fold change vs veh, MED14 / RFU, SNORA58 / Fold change vs veh, SNORA58 / RFU, C1orf63 / Fold change vs veh, C1orf63 / RFU, LRRFIP1 / Fold change vs veh, LRRFIP1 / RFU, NDUFAF7 / Fold change vs veh, NDUFAF7 / RFU, SLC12A2 / Fold change vs veh, SLC12A2 / RFU, IBTK / Fold change vs veh, IBTK / RFU, ESF1 / Fold change vs veh, ESF1 / Fold change vs veh, TMEM50B / RFU, TAOK1 / Fold change vs veh, TAOK1 / RFU, ACBD3 / Fold change vs veh, ACBD3 / RFU, TMA16 / Fold change vs veh, TMA16 / RFU, RWDD3 / Fold change vs veh, RWDD3 / RFU, BCAT1 / Fold change vs veh, BCAT1 / RFU, EDEM3 / Fold change vs veh, EDEM3 / RFU, TMEM33 / Fold change vs veh, TMEM33 / RFU, WDR75 / Fold change vs veh, WDR75 / RFU, AHCTF1 / Fold change vs veh, AHCTF1 / RFU, TFRC / Fold change vs veh, TFRC / RFU, ZDHHC17 / Fold change vs veh, ZDHHC17 / RFU, NOM1 / Fold change vs veh, NOM1 / RFU, ARL8B / Fold change vs veh, ARL8B / RFU, ZBTB11 / Fold change vs veh, ZBTB11 / RFU, TAMM41 / Fold change vs veh, TAMM41 / RFU, KIAA1704 /// LOC100996395 / Fold change vs veh, KIAA1704 /// LOC100996395 / RFU, ING1 / Fold change vs veh, ING1 / RFU, TRMT61B / Fold change vs veh, TRMT61B / RFU, FUBP3 / Fold change vs veh, FUBP3 / RFU, TP53 / Fold change vs veh, TP53 / RFU, TNKS2 / Fold change vs veh, TNKS2 / RFU, ZFP14 / Fold change vs veh, ZFP14 / RFU, ACTR2 / Fold change vs veh, ACTR2 / RFU, PPP3R1 / Fold change vs veh, PPP3R1 / RFU, PIK3R1 / Fold change vs veh, PIK3R1 / RFU, HNRNPA1 / Fold change vs veh, HNRNPA1 / RFU, RNF170 / Fold change vs veh, RNF170 / RFU, ZNF28 / Fold change vs veh, ZNF28 / RFU, RNGTT / Fold change vs veh, RNGTT / RFU, OGT / Fold change vs veh, OGT / RFU, BRD1 / Fold change vs veh, BRD1 / RFU, MARS / Fold change vs veh, MARS / RFU, ZNF655 / Fold change vs veh, ZNF655 / RFU, FAHD1 / Fold change vs veh, FAHD1 / RFU, BDP1 / Fold change vs veh, BDP1 / RFU, LRRCC1 / Fold change vs veh, LRRCC1 / RFU, ARID1A / Fold change vs veh, ARID1A / RFU, ZNF146 / Fold change vs veh, ZNF146 / RFU, ZNF330 / Fold change vs veh, ZNF330 / RFU, GPN3 / Fold change vs veh, GPN3 / RFU, C9orf123 / Fold change vs veh, C9orf123 / RFU, N4BP2L2 / Fold change vs veh, N4BP2L2 / RFU, ARFIP1 / Fold change vs veh, ARFIP1 / RFU, FAM179B / Fold change vs veh, FAM179B / RFU, BCL10 / Fold change vs veh, BCL10 / RFU, UHRF1BP1L / Fold change vs veh, UHRF1BP1L / RFU, BET1 / Fold change vs veh, BET1 / RFU, CNOT2 / Fold change vs veh, CNOT2 / RFU, ZNF268 / Fold change vs veh, ZNF268 / Fold change vs veh, ZNF507 / RFU, DGCR2 / Fold change vs veh, DGCR2 / RFU, WDSUB1 / Fold change vs veh, WDSUB1 / Fold change vs veh, HSP90B1 /// MIR3652 / RFU, ADSS / Fold change vs veh, ADSS / RFU, GK / Fold change vs veh, GK / RFU, ZNF148 / Fold change vs veh, ZNF148 / RFU, TAF9 / Fold change vs veh, TAF9 / RFU, SLC1A5 / Fold change vs veh, SLC1A5 / RFU, SLMO2 / Fold change vs veh, SLMO2 / RFU, ABCC4 / Fold change vs veh, ABCC4 / RFU, LOC101060439 /// RAP1B / Fold change vs veh, LOC101060439 /// RAP1B / RFU, RFX7 / Fold change vs veh, RFX7 / RFU, GTPBP10 / Fold change vs veh, GTPBP10 / RFU, CNEP1R1 / Fold change vs veh, CNEP1R1 / RFU, BIVM-ERCC5 /// ERCC5 / Fold change vs veh, BIVM-ERCC5 /// ERCC5 / RFU, ILF3 / Fold change vs veh, ILF3 / RFU 11762660_at / Fold change /veh 11762660_at / RFU VCAN (11757783_s_at) / Fold change /veh VCAN (11757783_s_at) / RFU DDX43 (11728927_at) / Fold change /veh DDX43 (11728927_at) / RFU KRT8 (11758188_x_at) / Fold change /veh KRT8 (11758188_x_at) / RFU NKD1 (11759106_at) / Fold change /veh NKD1 (11759106_at) / RFU SRD5A1 (11742802_a_at) / Fold change /veh SRD5A1 (11742802_a_at) / RFU TPSAB1 /// TPSB2 (11721975_s_at) / Fold change /veh TPSAB1 /// TPSB2 (11721975_s_at) / RFU GSTM3 (11746129_a_at) / Fold change /veh GSTM3 (11746129_a_at) / RFU IL23R (11737362_x_at) / Fold change /veh IL23R (11737362_x_at) / RFU TMEM51 (11727254_a_at) / Fold change /veh TMEM51 (11727254_a_at) / RFU PIWIL2 (11732686_x_at) / Fold change /veh PIWIL2 (11732686_x_at) / RFU ORM1 (11744905_x_at) / Fold change /veh ORM1 (11744905_x_at) / RFU CCDC152 (11743942_at) / Fold change /veh CCDC152 (11743942_at) / RFU ECM1 (11717891_a_at) / Fold change /veh ECM1 (11717891_a_at) / RFU IL23R (11748794_a_at) / Fold change /veh IL23R (11748794_a_at) / RFU TNFAIP8L3 (11732012_x_at) / Fold change /veh TNFAIP8L3 (11732012_x_at) / RFU MBOAT4 (11741988_at) / Fold change /veh MBOAT4 (11741988_at) / RFU 11764193_at / Fold change /veh 11764193_at / RFU TMEM53 (11763286_at) / Fold change /veh TMEM53 (11763286_at) / RFU MAGEB2 (11727129_at) / Fold change /veh MAGEB2 (11727129_at) / RFU TMEM200A (11744735_a_at) / Fold change /veh TMEM200A (11744735_a_at) / RFU CCDC152 (11751479_a_at) / Fold change /veh CCDC152 (11751479_a_at) / RFU FAM211A (11726209_a_at) / Fold change /veh FAM211A (11726209_a_at) / RFU RGS16 (11746705_a_at) / Fold change /veh RGS16 (11746705_a_at) / RFU VCAN (11755009_s_at) / Fold change /veh VCAN (11755009_s_at) / RFU RHOB (11743442_s_at) / Fold change /veh RHOB (11743442_s_at) / RFU RGS16 (11720943_a_at) / Fold change /veh RGS16 (11720943_a_at) / RFU RGS16 (11720944_at) / Fold change /veh RGS16 (11720944_at) / RFU, VPS4B / Fold change vs veh, VPS4B / RFU, CREB1 / Fold change vs veh, CREB1 / RFU, DNAJC13 / Fold change vs veh, DNAJC13 / RFU, GNAQ / Fold change vs veh, GNAQ / RFU, CDK5R1 / Fold change vs veh, CDK5R1 / RFU, ZRANB3 / Fold change vs veh, ZRANB3 / RFU, CUL4A / Fold change vs veh, CUL4A / RFU, CCNY / Fold change vs veh, CCNY / RFU, UFL1 / Fold change vs veh, UFL1 / RFU, COG3 / Fold change vs veh, COG3 / RFU, DIAPH2 / Fold change vs veh, DIAPH2 / RFU, SKA2 / Fold change vs veh, SKA2 / RFU, AFF3 / Fold change vs veh, AFF3 / RFU, LMF1 / Fold change vs veh, LMF1 / RFU, IPO11 / Fold change vs veh, IPO11 / RFU, DFFB / Fold change vs veh, DFFB / RFU, FOXP1 / Fold change vs veh, FOXP1 / RFU, CARD8 / Fold change vs veh, CARD8 / RFU, STRN3 / Fold change vs veh, STRN3 / RFU, ADK / Fold change vs veh, ADK / RFU, RASSF2 / Fold change vs veh, RASSF2 / RFU, WIPF1 / Fold change vs veh, WIPF1 / RFU, LARP1B / Fold change vs veh, LARP1B / RFU, RASA1 / Fold change vs veh, RASA1 / RFU, RB1 / Fold change vs veh, RB1 / RFU, PPFIA1 / Fold change vs veh, PPFIA1 / RFU, MAT2A / Fold change vs veh, MAT2A / RFU, CCT5 / Fold change vs veh, CCT5 / RFU, WDR92 / Fold change vs veh, WDR92 / RFU, CUX1 / Fold change vs veh, CUX1 / RFU, TTC7A / Fold change vs veh, TTC7A / RFU, TMEM135 / Fold change vs veh, TMEM135 / RFU, DEPTOR / Fold change vs veh, DEPTOR / RFU, CPM / Fold change vs veh, CPM / RFU, DNAJB6 / Fold change vs veh, DNAJB6 / RFU, CACNA2D3 / Fold change vs veh, CACNA2D3 / RFU, DTX4 / Fold change vs veh, DTX4 / RFU, TFCP2 / Fold change vs veh, TFCP2 / RFU, GMCL1 /// GMCL1P1 / Fold change vs veh, GMCL1 /// GMCL1P1 / RFU, AEBP2 / Fold change vs veh, AEBP2 / RFU, SNHG1 /// SNORD22 /// SNORD25 /// SNORD26 /// SNORD27 /// SNORD28 /// SNORD29 /// SNORD31 / Fold change vs veh, SNHG1 /// SNORD22 /// SNORD25 /// SNORD26 /// SNORD27 /// SNORD28 /// SNORD29 /// SNORD31 / Fold change (Aza/veh), C12orf56 (ProbeSet 11735607_a_at) / Fold change (ACY-1035/veh), C12orf56 (ProbeSet 11735607_a_at) / Fold change (Aza/veh), FGFR1OP (ProbeSet 11751329_s_at) / Fold change (ACY-1035/veh), FGFR1OP (ProbeSet 11751329_s_at) / Fold change (Aza/veh), VPS36 (ProbeSet 11739960_a_at) / Fold change (ACY-1035/veh), VPS36 (ProbeSet 11739960_a_at) / RFU SYPL1 (11715823_x_at) / Fold change /veh SYPL1 (11715823_x_at) / RFU IGFBP7 (11715501_s_at) / Fold change /veh IGFBP7 (11715501_s_at) / RFU REEP3 (11722064_at) / Fold change /veh REEP3 (11722064_at) / RFU IGLL1 (11728026_x_at) / Fold change /veh IGLL1 (11728026_x_at): dose or concentration left out as unconfirmed
Details: ProbeSet 11754362_a_at; LIST D

## Nc1ncn([C@@H]2O[C@H](CO)[C@@H](O)[C@H]2O)c(=O)n1 [azacitidine]
  Fold change vs veh, TTC7A: 0.72
